{"source": "patent US20080254993A1", "about": "“Use of abscisic acid analogs to enhance growth control” (priority 2007, published 2008)", "key": {"tomato": {"tested_on": "tomato", "assay": "Tomato leaf transpiration, greenhouse, porometer (Example 5)", "assay_type": "in vivo, Tomato (variety: Rutgers)", "conditions": "for Tomato leaf transpiration (in words): PBI-429 25-200 ppm, trinexapac-ethyl 250-2000 ppm, alone or combined, 3-14 days after treatment", "text": "The effect of ABA analog (PBI-429) and trinexapac-ethyl combinations on transpiration and growth inhibition of dicotyledonous (tomato) was also examined in the greenhouse condition. Tomato (variety: Rutgers) seeds were sown in 18-cell flat filled with Promix PGX (available from Premier Horticulture Inc. Quakertown, Pa.) and grown for 3 weeks to allow for germination and initial growth. Plants were then transplanted into pots (18 cm in diameter and 18 cm in height), filled with Promix BX (available from Premier Horticulture Inc. Quakertown, Pa.), and grown for one week before the chemical treatment. Plants received daily irrigation and weekly fertilizer (1 g/L all purpose fertilizer 20-20-20, available from The Scotts Company, Marysville, Ohio). During the chemical treatment, a 24 mL (4 mL/plant) solution was foliar sprayed on the tomato canopy. Leaf transpiration rates were measured using a LI-1600 Steady State Porometer (LI-Cor, Lincoln, Nebr.) at 3, 5, 7, 10, and 14 days after treatment. The leaf transpiration rate was normalized to the percentage of control plant to minimize the experimental errors caused by environmental factors. Plant height was measured at 0, 3, 5, 7, 10 and 14 days after treatment. The growth rate was calculated based on the changes of plant height in certain intervals. The plants were harvested and the leaf number was counted at 14 days after treatment."}, "creeping bentgrass [1]": {"tested_on": "creeping bentgrass", "assay": "Golf course green field study on creeping bentgrass with PBI-696: growth rate, turfgrass quality (Example 4)", "assay_type": "in vivo, Penncross creeping bentgrass", "conditions": "4 days after treatment, trinexapac-ethyl (25 ppm) alone", "experimental": "(§1) Field studies were conducted at the nursery green or the practice green at Countryside golf course (Mundelein, Ill.). Both greens were sand based and growing Penncross creeping bentgrass. Grass was managed with typical Illinois golf course management practices.\nChemical solutions were prepared with distilled water. Tween 20 (0.05% v/v) was used as the surfactant when necessary. Trinexapac-ethyl (commercial product Primo Maxx, 11.3% active ingredient) was purchased from Syngenta Crop Protection Inc. (Greensboro, N.C.). […]\nChemical solutions were foliar applied to the turfgrass canopy at the rate of 4-gallons/1000 square foot (or 0.163 L/m^−2) immediately after finishing the preparation of solutions. […] Turfgrass quality, turfgrass height or clip fresh weight was measured on assigned dates. […] Turfgrass height was measured as the distance between canopy surface and soil. […]\nAll experiments were randomized complete block experimental design. Data were analyzed by analysis of variance. […]\nTrinexapac-ethyl (25 ppm) and PBI-696 (5 or 50 ppm) were one time foliar applied in combination to creeping bentgrass in the golf course green. Turfgrass quality and growth rate were measured 4 days after treatment."}, "creeping bentgrass [2]": {"tested_on": "creeping bentgrass", "assay": "Golf course green field study on creeping bentgrass with PBI-702: turfgrass height, soil moisture, turf quality (Example 3)", "assay_type": "in vivo, Penncross creeping bentgrass", "conditions": "for Soil moisture / Turfgrass height / Turf quality: 25 ppm trinexapac-ethyl alone; for Turf quality: visual 0-9 scale, 9 best", "experimental": "as §1\nChemical solutions were prepared with distilled water. Tween 20 (0.05% v/v) was used as the surfactant when necessary. Trinexapac-ethyl (commercial product Primo Maxx, 11.3% active ingredient) was purchased from Syngenta Crop Protection Inc. (Greensboro, N.C.). ABA analogs, 8′ acetylene-ABA, acid (PBI-524), 8′ acetylene-ABA, ester (PBI-429), 8′ cyclopropane ester (PBI-696), or Tetralone, first carbon tail acetylene, ester (PBI-702), were obtained from Plant Biotechnology Institute, National Research Council of Canada (Saskatoon, Saskatchewan, Canada).\nChemical solutions were foliar applied to the turfgrass canopy at the rate of 4-gallons/1000 square foot (or 0.163 L/m^−2) immediately after finishing the preparation of solutions. After treatment, turfgrasses were arranged in a randomized complete block experimental design. Turfgrass quality, turfgrass height or clip fresh weight was measured on assigned dates. Turfgrass quality was visually rated on a 0-9 scale based on the color, uniformity, and density of the grass with 0 as the worst and 9 as the best. Turfgrass height was measured as the distance between canopy surface and soil. Clippings were collected form each plot; all plots were cut to a uniform height.\nAll experiments were randomized complete block experimental design. Data were analyzed by analysis of variance. Duncan's new multiple range tests at α=0.05 were used for mean separations.\nTrinexapac-ethyl (25 ppm) or PBI-702 (50 ppm) were one time foliar applied alone or in combination to creeping bentgrass in the golf course green to investigate their effect on turfgrass quality, growth inhibition and soil moisture."}}, "data": [{"smiles": "C#CC1(C)CC(=O)C=C(C)C1(O)/C=C/C(C)=C\\C(=O)OC", "note": "(stereo not drawn) [PBI-429, 8′ acetylene-ABA, ester]", "values": [{"measurement": "Transpiration", "setting": "tomato; 25 ppm PBI-429, 3 days after treatment", "result": "53 % of control"}, {"measurement": "Transpiration", "setting": "tomato; 25 ppm PBI-429, 5 days after treatment", "result": "61 % of control"}, {"measurement": "Transpiration", "setting": "tomato; 25 ppm PBI-429, 7 days after treatment", "result": "75 % of control"}, {"measurement": "Transpiration", "setting": "tomato; 25 ppm PBI-429, 10 days after treatment", "result": "80 % of control"}, {"measurement": "Transpiration", "setting": "tomato; 25 ppm PBI-429, 14 days after treatment", "result": "103 % of control"}, {"measurement": "Transpiration", "setting": "tomato; 50 ppm PBI-429, 3 days after treatment", "result": "36 % of control"}, {"measurement": "Transpiration", "setting": "tomato; 50 ppm PBI-429, 5 days after treatment", "result": "32 % of control"}, {"measurement": "Transpiration", "setting": "tomato; 50 ppm PBI-429, 7 days after treatment", "result": "42 % of control"}, {"measurement": "Transpiration", "setting": "tomato; 50 ppm PBI-429, 10 days after treatment", "result": "69 % of control"}, {"measurement": "Transpiration", "setting": "tomato; 50 ppm PBI-429, 14 days after treatment", "result": "99 % of control"}, {"measurement": "Transpiration", "setting": "tomato; 100 ppm PBI-429, 3 days after treatment", "result": "34 % of control"}, {"measurement": "Transpiration", "setting": "tomato; 100 ppm PBI-429, 5 days after treatment", "result": "29 % of control"}, {"measurement": "Transpiration", "setting": "tomato; 100 ppm PBI-429, 7 days after treatment", "result": "38 % of control"}, {"measurement": "Transpiration", "setting": "tomato; 100 ppm PBI-429, 10 days after treatment", "result": "55 % of control"}, {"measurement": "Transpiration", "setting": "tomato; 100 ppm PBI-429, 14 days after treatment", "result": "98 % of control"}, {"measurement": "Transpiration", "setting": "tomato; 200 ppm PBI-429, 3 days after treatment", "result": "26 % of control"}, {"measurement": "Transpiration", "setting": "tomato; 200 ppm PBI-429, 5 days after treatment", "result": "24 % of control"}, {"measurement": "Transpiration", "setting": "tomato; 200 ppm PBI-429, 7 days after treatment", "result": "28 % of control"}, {"measurement": "Transpiration", "setting": "tomato; 200 ppm PBI-429, 10 days after treatment", "result": "34 % of control"}, {"measurement": "Transpiration", "setting": "tomato; 200 ppm PBI-429, 14 days after treatment", "result": "71 % of control"}, {"measurement": "Tomato leaf transpiration (in words)", "setting": "tomato", "result": "inhibited tomato leaf transpiration"}]}, {"smiles": "CCOC(=O)C1CC(=O)C(=C(O)C2CC2)C(=O)C1", "note": "(stereo not drawn) [trinexapac-ethyl, reference compound]", "values": [{"measurement": "Growth rate", "setting": "creeping bentgrass [1]", "result": 549, "unit": "mg dry weight m^−2 day^−1"}, {"measurement": "Turfgrass quality", "setting": "creeping bentgrass [1]; visual 0-9 scale, 9 best", "result": 8.0}, {"measurement": "Soil moisture", "setting": "creeping bentgrass [2]; 4 days after treatment", "result": 11.2, "unit": "%"}, {"measurement": "Turfgrass height", "setting": "creeping bentgrass [2]; 4 days after treatment", "result": 7.3, "unit": "mm"}, {"measurement": "Reducing growth or maintaining soil moisture (in words)", "setting": "creeping bentgrass [2]; 4 days after treatment, trinexapac-ethyl 25 ppm, PBI-702 50 ppm, alone or combined", "result": "ineffective at reducing growth or maintaining soil moisture"}, {"measurement": "Soil moisture", "setting": "creeping bentgrass [2]; 7 days after treatment", "result": 12.7, "unit": "%"}, {"measurement": "Turfgrass height", "setting": "creeping bentgrass [2]; 7 days after treatment", "result": 6.5, "unit": "mm"}, {"measurement": "Turf quality", "setting": "creeping bentgrass [2]; 7 days after treatment", "result": 7.3}, {"measurement": "Reducing growth (in words)", "setting": "creeping bentgrass [2]; 7 days after treatment, trinexapac-ethyl 25 ppm, PBI-702 50 ppm, alone or combined", "result": "effective at reducing growth"}, {"measurement": "Soil moisture", "setting": "creeping bentgrass [2]; 38 days after treatment", "result": 12.4, "unit": "%"}, {"measurement": "Turfgrass height", "setting": "creeping bentgrass [2]; 38 days after treatment", "result": 6.0, "unit": "mm"}, {"measurement": "Turf quality", "setting": "creeping bentgrass [2]; 38 days after treatment", "result": 7.6}, {"measurement": "Transpiration", "setting": "tomato; 250 ppm trinexapac-ethyl, 3 days after treatment", "result": "95 % of control"}, {"measurement": "Transpiration", "setting": "tomato; 250 ppm trinexapac-ethyl, 5 days after treatment", "result": "95 % of control"}, {"measurement": "Transpiration", "setting": "tomato; 250 ppm trinexapac-ethyl, 7 days after treatment", "result": "94 % of control"}, {"measurement": "Transpiration", "setting": "tomato; 250 ppm trinexapac-ethyl, 10 days after treatment", "result": "94 % of control"}, {"measurement": "Transpiration", "setting": "tomato; 250 ppm trinexapac-ethyl, 14 days after treatment", "result": "100 % of control"}, {"measurement": "Transpiration", "setting": "tomato; 500 ppm trinexapac-ethyl, 3 days after treatment", "result": "94 % of control"}, {"measurement": "Transpiration", "setting": "tomato; 500 ppm trinexapac-ethyl, 5 days after treatment", "result": "101 % of control"}, {"measurement": "Transpiration", "setting": "tomato; 500 ppm trinexapac-ethyl, 7 days after treatment", "result": "94 % of control"}, {"measurement": "Transpiration", "setting": "tomato; 500 ppm trinexapac-ethyl, 10 days after treatment", "result": "97 % of control"}, {"measurement": "Transpiration", "setting": "tomato; 500 ppm trinexapac-ethyl, 14 days after treatment", "result": "97 % of control"}, {"measurement": "Transpiration", "setting": "tomato; 1000 ppm trinexapac-ethyl, 3 days after treatment", "result": "100 % of control"}, {"measurement": "Transpiration", "setting": "tomato; 1000 ppm trinexapac-ethyl, 5 days after treatment", "result": "95 % of control"}, {"measurement": "Transpiration", "setting": "tomato; 1000 ppm trinexapac-ethyl, 7 days after treatment", "result": "94 % of control"}, {"measurement": "Transpiration", "setting": "tomato; 1000 ppm trinexapac-ethyl, 10 days after treatment", "result": "101 % of control"}, {"measurement": "Transpiration", "setting": "tomato; 1000 ppm trinexapac-ethyl, 14 days after treatment", "result": "100 % of control"}, {"measurement": "Transpiration", "setting": "tomato; 2000 ppm trinexapac-ethyl, 3 days after treatment", "result": "94 % of control"}, {"measurement": "Transpiration", "setting": "tomato; 2000 ppm trinexapac-ethyl, 5 days after treatment", "result": "96 % of control"}, {"measurement": "Transpiration", "setting": "tomato; 2000 ppm trinexapac-ethyl, 7 days after treatment", "result": "93 % of control"}, {"measurement": "Transpiration", "setting": "tomato; 2000 ppm trinexapac-ethyl, 10 days after treatment", "result": "91 % of control"}, {"measurement": "Transpiration", "setting": "tomato; 2000 ppm trinexapac-ethyl, 14 days after treatment", "result": "96 % of control"}, {"measurement": "Tomato leaf transpiration (in words)", "setting": "tomato", "result": "did not significantly inhibited tomato leaf transpiration"}]}]}
